Laboratory results taken from paper PMC9611259, “Antimicrobial Peptides Active in In Vitro Models of Endodontic Bacterial Infections Modulate Inflammation in Human Cardiac Fibroblasts” (Pharmaceutics, 2022).
Converted amounts (≈) assume the structure as drawn. Read-outs that look alike come from different tables or passages of the source. Where a SMILES comes first, the peptide text is derived from it. Bridges are numbered along the chain shown (N, C = ends). Roman numbers before positions name the chains, in order. [ ]: non-standard residue; d: D form. βAla = NCCC(=O)O

Columns and labels:
C. glabrata ATCC 90030 = type: cell-based
E. faecalis PE [1] = type: cell-based, Enterococcus faecalis
Experimental: (§1) The bacteria reported in Table 1 were used for conventional susceptibility testing experiments. M33D and M33i/l MICs were determined in triplicate on reference and clinical strains using a microdilution assay, performed according to the guidelines of the Clinical and Laboratory Standards Institute. Briefly, strains were grown on Mueller–Hinton (MH) agar plates (Becton Dickinson, Franklin Lakes, NJ, USA) and a single colony for each strain was picked using a sterile cotton swab, streaked in sterile cation-supplemented MH, and measured with a densitometer (Densichek, bioMèrieux, Marcy l’Etoile, France) up to 0.15 optical density. Wells of a microtiter plate containing 50 μL serial-doubling dilutions of the peptides were inoculated with an equal volume of bacterial suspension. The final bacterial inoculum was 5 × 10^4 CFU/well in a volume of 100 μL. […] Assays were performed in triplicate, and the median MIC values were recorded.

E. faecalis Fi74B4 = type: cell-based, Enterococcus faecalis
Experimental: as §1

E. faecalis ATCC 51299 [2] = type: cell-based, Enterococcus faecalis
Experimental: as §1

E. faecalis Fi74B1 = type: cell-based, Enterococcus faecalis
Experimental: as §1

C. krusei ATCC 6268 = type: cell-based
E. faecalis PE [3] = type: cell-based, Enterococcus faecalis; details: 24 h preformed biofilm challenged with peptide 14 h at 37 °C, crystal violet OD595, triplicate wells
Experimental: (§2) For MBIC, the bacterial suspension (200 μL) of E. faecalis PE, E. faecalis 51299, E. coli TG1, or E. coli LC711, obtained as above, was added to wells in triplicate, in a 96-well U-bottom plate and incubated at 37 °C for 24h. The supernatant was removed, and 200 μL M33D and M33i/l diluted in TSB was added to the wells in twofold serial dilutions of each peptide.
(§3) Untreated bacteria were used as positive control. After 14 h of static incubation at 37 °C, wells were washed thrice with PBS and fixed with PFA 4% in PBS (200 μL) for 30 min at room temperature. Wells were then washed three times, and crystal violet (1% in water) was added and incubated for 30 min in the dark. Wells were again washed, and the color dissolved with ethanol/acetone 80:20. Color was read at 595 nm. The MBIC is the lowest concentration of an antibiotic that results in an OD595 nm difference of ≤10% of the mean of two control well readings.
(§4) Biofilm inhibition activity was evaluated on the basis of two parameters: the biofilm prevention concentration (BPC) and the minimal biofilm inhibition concentration (MBIC). The BPC is the lowest concentration of peptide that results in 10% lower biofilm formation compared to untreated controls. The biofilm was measured after removing planktonic cells by washing the wells, previously incubated for 24 h with the bacteria and the peptide. MBIC is the lowest concentration of peptide that results in a 10% reduction in preformed biofilm compared to untreated controls. A 24 h biofilm was challenged with serial dilutions of the peptides for 14 h. Then after removal of planktonic cells, the residual biofilm was measured. Crystal violet absorbance at […] was used to measure biofilm in the case of both parameters.

E. faecalis ATCC 51299 [4] = type: cell-based, Enterococcus faecalis; details: 24 h preformed biofilm challenged with peptide 14 h at 37 °C, crystal violet OD595, triplicate wells
Experimental: as §2, §3, §4

in vitro = in vitro ADME; details: human, serum
Experimental: A pool of sera from healthy volunteers (n = 5) was diluted to 50% with RPMI 1640 medium. A 5 μg/mL solution of the peptides in 50% serum was incubated at 37 °C for different time intervals (2, 4, 24, 48, and 72 h). At the established time, trichloroacetic acid was added at a 7.5% concentration, and the sample was centrifuged at 12,000–13,000× g for 15 min. Part of the supernatant was used for the MALDI-TOF analysis (2 μL) and part (250 μL) for the HPLC analysis, after being diluted with 1% TFA (750 μL). Time-zero HPLC and MS-spectroscopy spectra were obtained immediately after mixing the peptide with 50% serum. The presence of the intact peptide was determined in HPLC by spotting and integrating the peptide peak at the correct retention time. The identity of the peptide peak was further also confirmed by MALDI mass spectrometry.

[5] = Eukaryotic cell viability assay (MTT); type: cell-based, murine; details: mouse
Experimental: RAW 264.7 cells, 5 × 10^3 per well, were seeded in 96-well plates and incubated for 24 h at 37 °C in a 5% CO2 atmosphere. A 100 μL volume of peptides at different concentrations in fresh medium was then added to the wells and kept for 24 h. Then 20 μL MTT (5 mg/mL) was added to each well, and the plate was incubated at 37 °C for 3 h. Finally, 120 μL HCl 4 mM in isopropanol was added to each well to dissolve the formazan crystals. Optical density was measured with a microplate reader (Bio-Rad, Hercules, CA, USA) at 570 nm. Cell viability was calculated by comparing the values of treated with those of untreated cells. Curves and EC50 were calculated using GraphPad Prism 5.03 software.

E. coli LC711 [6] = type: cell-based, Escherichia coli
Experimental: as §1

E. coli TG1 [7] = type: cell-based, Escherichia coli; details: reference strain; CLSI microdilution, 5 × 10^4 CFU/well, 35° 18–20 h, median of triplicate
Experimental: as §1

[8] = tested on: Enterococcus faecalis and faecium; type: cell-based
Experimental: as §1

C. striatum ATCC = type: cell-based
Experimental: as §1

S. pneumoniae ATCC 49619 = type: cell-based
Experimental: as §1

S. pyogenes CCUG2557 = type: cell-based
Experimental: as §1

[9] = tested on: Staphylococcus aureus and epidermidis; type: cell-based
Experimental: as §1

C. albicans ATCC 90028 = type: cell-based
E. coli LC711 [10] = type: cell-based, Escherichia coli; details: 24 h preformed biofilm challenged with peptide 14 h at 37 °C, crystal violet OD595, triplicate wells
Experimental: as §2, §3, §4

E. coli TG1 [11] = type: cell-based, Escherichia coli; details: 24 h preformed biofilm challenged with peptide 14 h at 37 °C, crystal violet OD595, triplicate wells
Experimental: as §2, §3, §4

Candida species = type: cell-based
S. aureus 3851 = type: cell-based, Staphylococcus aureus
Experimental: as §1

S. aureus USA 300 = type: cell-based, Staphylococcus aureus
Experimental: as §1

P. aeruginosa AV 65 = type: cell-based, Pseudomonas aeruginosa
Experimental: as §1

P. aeruginosa ATCC 27853 = type: cell-based, Pseudomonas aeruginosa
Experimental: as §1

E. coli ATCC 25922 = type: cell-based, Escherichia coli
Experimental: as §1

E. coli W03BG0025 = type: cell-based, Escherichia coli
Experimental: as §1

[12] = tested on: S. epidermidis ATCC 14990; type: cell-based
Experimental: as §1

S. epidermidis 6154 = type: cell-based
Experimental: as §1

K. pneumoniae ATCC 13833 = type: cell-based, Klebsiella pneumoniae
Experimental: as §1

K. pneumoniae 7086042 = type: cell-based, Klebsiella pneumoniae
Experimental: as §1

E. faecalis = details: standard-of-care antibiotics against E. faecalis; cited from earlier work
Experimental: As reported in Table 2, biofilm inhibition was tested against two strains of E. faecalis, ATCC 51,299 and PE endodontic isolate, and two strains of E. coli, TG1 reference strain and LC711 clinical isolate (Table 2). The BPC of M33D was equal to the MIC against E. faecalis reference strain ATCC 51,299 and clinical isolate PE. The BPC of M33i/l was double and equal to the MIC in E. faecalis reference strain and clinical isolate, respectively. The MBIC of both peptides against E. faecalis reference strain and PE was 6 μM, i.e., from two to three times the MIC. The results are particularly promisi ...

CC[C@@H](C)[C@@H](NC(=O)[C@@H](CCCCN)NC(=O)[C@H](N)CCCCN)C(=O)N[C@H](CCCNC(=N)N)C(=O)N[C@@H](C(=O)N[C@H](CCCNC(=N)N)C(=O)N[C@H](CC(C)C)C(=O)N[C@H](CO)C(=O)N[C@H](C)C(=O)NCCCC[C@H](NC(=O)[C@@H](C)NC(=O)[C@@H](CO)NC(=O)[C@@H](CC(C)C)NC(=O)[C@@H](CCCNC(=N)N)NC(=O)[C@H](NC(=O)[C@@H](CCCNC(=N)N)NC(=O)[C@H](NC(=O)[C@@H](CCCCN)NC(=O)[C@H](N)CCCCN)[C@H](C)CC)C(C)C)C(=O)NCCCC[C@H](NC(=O)[C@H](CCCCNC(=O)[C@@H](C)NC(=O)[C@@H](CO)NC(=O)[C@@H](CC(C)C)NC(=O)[C@@H](CCCNC(=N)N)NC(=O)[C@H](NC(=O)[C@@H](CCCNC(=N)N)NC(=O)[C@H](NC(=O)[C@@H](CCCCN)NC(=O)[C@H](N)CCCCN)[C@H](C)CC)C(C)C)NC(=O)[C@@H](C)NC(=O)[C@@H](CO)NC(=O)[C@@H](CC(C)C)NC(=O)[C@@H](CCCNC(=N)N)NC(=O)[C@H](NC(=O)[C@@H](CCCNC(=N)N)NC(=O)[C@H](NC(=O)[C@@H](CCCCN)NC(=O)[C@H](N)CCCCN)[C@H](C)CC)C(C)C)C(=O)NCCC(=O)O)C(C)C [M33D]
MIC (C. glabrata ATCC 90030): 12 (64) μM | MIC (E. faecalis PE [1]): 1.5 (8) μM | MIC (E. faecalis Fi74B4): 1.5 (8) μM | MIC (E. faecalis ATCC 51299 [2]): 3 (16) μM | MIC (E. faecalis Fi74B1): 0.8 (4) μM | MIC (C. krusei ATCC 6268): 6 (32) μM | MBIC (E. faecalis PE [3]): 6 µM | MBIC (E. faecalis ATCC 51299 [4]): 6 µM | remaining at 72 h, 5 μg/mL (in vitro): 31% | EC50 at 24 h ([5]; 24 h incubation at 37 °C, MTT, n = 3, read-out: EC50 cytotoxicity): 30 µM | MIC (E. coli LC711 [6]; LC711): 1.5 µM (≈ 7.02 µg/mL) | MIC (E. coli TG1 [7]): 1.5 µM (≈ 7.02 µg/mL) | MIC range against Enterococcus faecalis and faecium [8]: 0.8 to 3 µM | MIC (C. striatum ATCC): 1.5 µM (≈ 7.02 µg/mL) | MIC (S. pneumoniae ATCC 49619): 6 (32) μM | MIC (S. pyogenes CCUG2557): 6 (32) μM | MIC range against Staphylococcus aureus and epidermidis [9]: 0.4 to 1.5 µM | MIC (C. albicans ATCC 90028): 5 (24) μM | MBIC (E. coli LC711 [10]): 3 µM | MBIC (E. coli TG1 [11]): 3 µM | MIC range against Candida species (Candida species): 5 to 12 µM

CC(C)C[C@@H](NC(=O)[C@@H](CCCCN)NC(=O)[C@H](N)CCCCN)C(=O)N[C@H](CCCNC(=N)N)C(=O)N[C@@H](C(=O)N[C@H](CCCNC(=N)N)C(=O)N[C@H](CC(C)C)C(=O)N[C@H](CO)C(=O)N[C@H](C)C(=O)NCCCC[C@H](NC(=O)[C@@H](C)NC(=O)[C@@H](CO)NC(=O)[C@@H](CC(C)C)NC(=O)[C@@H](CCCNC(=N)N)NC(=O)[C@H](NC(=O)[C@@H](CCCNC(=N)N)NC(=O)[C@@H](CC(C)C)NC(=O)[C@@H](CCCCN)NC(=O)[C@H](N)CCCCN)C(C)C)C(=O)NCCCC[C@H](NC(=O)[C@H](CCCCNC(=O)[C@@H](C)NC(=O)[C@@H](CO)NC(=O)[C@@H](CC(C)C)NC(=O)[C@@H](CCCNC(=N)N)NC(=O)[C@H](NC(=O)[C@@H](CCCNC(=N)N)NC(=O)[C@@H](CC(C)C)NC(=O)[C@@H](CCCCN)NC(=O)[C@H](N)CCCCN)C(C)C)NC(=O)[C@@H](C)NC(=O)[C@@H](CO)NC(=O)[C@@H](CC(C)C)NC(=O)[C@@H](CCCNC(=N)N)NC(=O)[C@H](NC(=O)[C@@H](CCCNC(=N)N)NC(=O)[C@@H](CC(C)C)NC(=O)[C@@H](CCCCN)NC(=O)[C@H](N)CCCCN)C(C)C)C(=O)NCCC(=O)O)C(C)C [M33i/l] (I: H-[dK][dK][dL][dR][dV][dR][dL][dS][dA]KK[βAla]-OH / II: H-[dK][dK][dL][dR][dV][dR][dL][dS][dA]K / III: H-[dK][dK][dL][dR][dV][dR][dL][dS][dA] / IV: H-[dK][dK][dL][dR][dV][dR][dL][dS][dA]; amide I:10-IV:C, I:11-II:C, II:10-III:C)
MIC (S. aureus 3851): 0.8 (4) μM | MIC (S. aureus USA 300): 1.5 (8) μM | MIC (P. aeruginosa AV 65): 1.5 (8) μM | MIC (P. aeruginosa ATCC 27853): 0.8 (4) μM | MIC (E. faecalis PE [1]): 1.5 (8) μM | MIC (E. faecalis ATCC 51299 [2]): 1.5 (8) μM | MBIC (E. faecalis PE [3]): 6 µM | MBIC (E. faecalis ATCC 51299 [4]): 6 µM | remaining at 72 h, 5 μg/mL (in vitro): 25% | EC50 at 24 h [5]: 18 µM | MIC (E. coli LC711 [6]; ColR (colistin-resistant) clinical isolate, CLSI microdilution, 5 × 10^4 CFU/well, 35° 18–20 h, median of triplicate): 0.3 (1.6) μM | MIC (E. coli TG1 [7]): 1.5 µM (≈ 7.02 µg/mL) | MIC (E. coli ATCC 25922): 3 (16) μM | MIC (E. coli W03BG0025): 3 (16) μM | MIC [12]: 0.8 (4) μM | MIC (S. epidermidis 6154): 0.8 (4) μM | MBIC (E. coli LC711 [10]): 3 µM | MBIC (E. coli TG1 [11]): 3 µM | MIC (K. pneumoniae ATCC 13833): 3 (16) μM | MIC (K. pneumoniae 7086042): 6 (32) μM

CC1(C)S[C@@H]2[C@H](NC(=O)[C@H](N)c3ccccc3)C(=O)N2[C@H]1C(=O)O [ampicillin]
MBIC as multiple of the MIC (E. faecalis): 2048 times the MIC

CC(=O)NC[C@H]1CN(c2ccc(N3CCOCC3)c(F)c2)C(=O)O1 [linezolid]
MBIC as multiple of the MIC (E. faecalis): 1024 times the MIC
